ChEMBL document CHEMBL1909046, “DrugMatrix in vitro pharmacology data”

Assays:
[1] = target: Protein kinase C alpha type (Homo sapiens, UniProt P17252); type: cell-based; conditions: sf9;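 note: inhibition of PKCalpha kinase activity measured in an enzyme assay with histone as the phosphorylation substrate; in other assays of this panel Not Active means under 50% inhibition at 10 µM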
[2] = DRUGMATRIX: Sigma2 radioligand binding (ligand: [3H] Ifenprodil); type: cell membranes, Rattus norvegicus, Wistar, Brain, Membrane; conditions: Not Active = under 50% inhibition at 10 µM
Cytochrome P450 2C19 = Cytochrome P450 2C19 (Homo sapiens, UniProt P33261); conditions: bti-tn-5b1-4; note: in other assays of this panel Not Active means under 50% inhibition at 10 µM
Substance-K receptor = target: T1, Substance-K receptor (Homo sapiens, UniProt P21452); type: cell membranes, CHO, Membrane; note: in other assays of this panel Not Active means under 50% inhibition at 10 µM
T1 sequence (P21452 whole entry): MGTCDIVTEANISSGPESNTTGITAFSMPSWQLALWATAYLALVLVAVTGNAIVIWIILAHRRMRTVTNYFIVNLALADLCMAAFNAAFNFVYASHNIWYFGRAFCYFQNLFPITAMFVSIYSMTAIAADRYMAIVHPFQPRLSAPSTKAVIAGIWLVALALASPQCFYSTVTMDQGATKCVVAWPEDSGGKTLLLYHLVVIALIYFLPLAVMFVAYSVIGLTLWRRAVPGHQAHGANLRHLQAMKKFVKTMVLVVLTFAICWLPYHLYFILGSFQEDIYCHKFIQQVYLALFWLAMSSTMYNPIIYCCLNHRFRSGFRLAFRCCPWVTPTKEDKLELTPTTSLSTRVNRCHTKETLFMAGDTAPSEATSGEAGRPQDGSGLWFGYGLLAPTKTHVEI

[3] = DRUGMATRIX: ATPase, Na+/K+ enzyme inhibition (substrate: ATP); type: tissue-based, Sus scrofa, Heart; conditions: Not Active = under 50% inhibition at 10 µM
Calcitonin receptor = target: T2, Calcitonin receptor (Homo sapiens, UniProt P30988); type: cell membranes, Membrane; conditions: t47d; note: in other assays of this panel Not Active means under 50% inhibition at 10 µM
T2 sequence (P30988 whole entry): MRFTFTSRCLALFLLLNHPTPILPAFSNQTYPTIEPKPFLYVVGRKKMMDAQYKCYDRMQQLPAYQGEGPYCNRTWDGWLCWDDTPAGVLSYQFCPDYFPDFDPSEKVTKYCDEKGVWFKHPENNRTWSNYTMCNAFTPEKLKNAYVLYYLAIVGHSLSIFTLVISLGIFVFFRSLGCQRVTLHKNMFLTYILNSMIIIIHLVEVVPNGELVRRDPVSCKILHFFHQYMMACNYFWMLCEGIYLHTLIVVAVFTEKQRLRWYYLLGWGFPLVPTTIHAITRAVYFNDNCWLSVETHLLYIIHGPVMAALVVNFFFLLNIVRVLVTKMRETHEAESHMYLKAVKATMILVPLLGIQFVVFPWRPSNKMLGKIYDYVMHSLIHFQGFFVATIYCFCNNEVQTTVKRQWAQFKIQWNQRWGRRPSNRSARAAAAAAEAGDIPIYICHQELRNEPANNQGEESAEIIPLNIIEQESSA

[4] = target: Mitogen-activated protein kinase 14 (Homo sapiens, UniProt Q16539); parameters: species or system Escherichia coli
Chain of Mitogen-activated protein kinase 14 (Q16539 whole entry): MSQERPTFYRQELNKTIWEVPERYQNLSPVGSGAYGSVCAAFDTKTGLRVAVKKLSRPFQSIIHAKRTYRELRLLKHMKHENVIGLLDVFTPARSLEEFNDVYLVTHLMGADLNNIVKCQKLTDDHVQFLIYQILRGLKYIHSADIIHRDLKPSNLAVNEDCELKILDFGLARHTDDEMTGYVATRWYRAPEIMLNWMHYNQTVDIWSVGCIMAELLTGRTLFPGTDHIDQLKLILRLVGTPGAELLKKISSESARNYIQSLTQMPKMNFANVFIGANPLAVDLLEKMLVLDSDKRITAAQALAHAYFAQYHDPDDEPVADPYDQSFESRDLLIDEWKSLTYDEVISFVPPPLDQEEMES

Chain of Cytochrome P450 2C19 (P33261 whole entry): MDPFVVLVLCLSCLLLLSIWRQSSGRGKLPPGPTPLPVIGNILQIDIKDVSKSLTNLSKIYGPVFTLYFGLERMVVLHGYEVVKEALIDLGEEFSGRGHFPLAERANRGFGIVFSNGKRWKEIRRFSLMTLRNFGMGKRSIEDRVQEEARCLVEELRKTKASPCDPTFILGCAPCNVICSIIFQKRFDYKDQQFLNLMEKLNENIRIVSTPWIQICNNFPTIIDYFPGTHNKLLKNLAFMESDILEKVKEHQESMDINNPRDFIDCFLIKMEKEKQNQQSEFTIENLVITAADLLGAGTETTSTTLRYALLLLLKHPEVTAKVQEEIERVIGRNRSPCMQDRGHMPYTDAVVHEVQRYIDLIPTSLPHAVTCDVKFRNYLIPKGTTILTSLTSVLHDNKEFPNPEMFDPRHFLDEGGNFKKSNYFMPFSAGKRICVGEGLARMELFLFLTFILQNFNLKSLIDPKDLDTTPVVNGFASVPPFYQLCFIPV

Compound	IC50 [1]	IC50 [2]	Ki [2]	IC50 (Cytochrome P450 2C19)	Ki (Cytochrome P450 2C19)	IC50 (Substance-K receptor; read-out: IC50)	Ki (Substance-K receptor; read-out: Ki)	IC50 [3]	Ki [3]	IC50 (Calcitonin receptor)	IC50 [4]	Ki [1]	IC50 (Substance-K receptor; cho)	Ki (Substance-K receptor; cho)	Ki (Calcitonin receptor)	Ki [4]
CC(C)(C)NC(=O)[C@@H]1C[C@@H]2CCCC[C@@H]2CN1C[C@@H](O)[C@H](Cc1ccccc1)NC(=O)[C@H](CC(N)=O)NC(=O)c1ccc2ccccc2n1	Not Active	Not Active	Not Active	Not Active	Not Active	6.21 µM	2.07 µM	Not Active	Not Active	Not Active	Not Active	–	–	–	–	–
SODIUM NITROPRUSSIDE	Not Active	Not Active	Not Active	Not Active	Not Active	–	–	Not Active	Not Active	Not Active	Not Active	Not Active	Not Active	Not Active	Not Active	Not Active
NC[C@H]1CC[C@H](C(=O)O)CC1 [TRANEXAMIC ACID]	Not Active	Not Active	Not Active	Not Active	Not Active	–	–	Not Active	Not Active	Not Active	Not Active	–	Not Active	–	–	–
N[C@@H]1[C@H]2CN(c3nc4c(cc3F)c(=O)c(C(=O)O)cn4-c3ccc(F)cc3F)C[C@@H]12 [TROVAFLOXACIN]	Not Active	Not Active	Not Active	Not Active	Not Active	–	–	Not Active	Not Active	Not Active	Not Active	–	Not Active	–	–	–
Cc1oncc1C(=O)Nc1ccc(C(F)(F)F)cc1 [LEFLUNOMIDE]	Not Active	Not Active	Not Active	Not Active	Not Active	–	–	Not Active	Not Active	Not Active	Not Active	–	Not Active	–	–	–
Cc1c(C)c2c(c(C)c1O)CCC(C)(COc1ccc(CC3SC(=O)NC3=O)cc1)O2 (stereo not given) [TROGLITAZONE]	Not Active	Not Active	Not Active	Not Active	Not Active	–	–	Not Active	Not Active	Not Active	Not Active	–	Not Active	–	–	–
CCCOc1ccccc1-c1nc2nn[nH]c2c(=O)[nH]1 [ZAPRINAST]	Not Active	Not Active	Not Active	Not Active	Not Active	–	–	Not Active	Not Active	Not Active	Not Active	–	Not Active	–	–	–
CC[C@]1(O)C[C@H]2CN(CCc3c([nH]c4ccccc34)[C@@](C(=O)OC)(c3cc4c(cc3OC)N(C=O)[C@H]3[C@@](O)(C(=O)OC)[C@H](OC(C)=O)[C@]5(CC)C=CCN6CC[C@]43[C@@H]65)C2)C1 [VINCRISTINE]	Not Active	Not Active	Not Active	Not Active	Not Active	–	–	Not Active	Not Active	Not Active	Not Active	–	Not Active	–	–	–
COc1c(C)c2c(c(O)c1C/C=C(\C)CCC(=O)O)C(=O)OC2 [MYCOPHENOLIC ACID]	Not Active	Not Active	Not Active	Not Active	Not Active	–	–	Not Active	Not Active	Not Active	Not Active	–	Not Active	–	–	–
CSc1ccc(/C=C2/C(C)=C(CC(=O)O)c3cc(F)ccc32)cc1 [SULINDAC SULFIDE]	Not Active	Not Active	Not Active	Not Active	Not Active	–	–	Not Active	Not Active	Not Active	Not Active	–	Not Active	–	–	–
O=NN(CCCl)C(=O)NC1CCCCC1 [LOMUSTINE]	Not Active	Not Active	Not Active	Not Active	Not Active	–	–	Not Active	Not Active	Not Active	Not Active	–	Not Active	–	–	–
